In brackets after ≈: the same amount, converted by molar mass. Several values for one entry are separate records, joined by “and”; a condition that tells them apart may be missing. Identical values can stand only once.
Tested on: Aspergillus fumigatus (strain n°AF 980003)
Test: Antifungal activity on a clinical strain of Aspergillus fumigatus (Alamar Blue microplate test)
Type: cell-based
Conditions: Aspergillus fumigatus; strain AF980003; Alamar Blue; read-out: CMI or CI80 Aspergillus fumigatus (AF980003)

Structure (SMILES)	MIC
Fc1ccc(Cn2c(Cn3ccnc3)cc3ccccc32)cc1 [Cpsé 3n, 1-(4-Fluorobenzyl)-2-(1H-imidazol-1-ylmethyl)-1H-indole]	21 ± 0.3 µM (≈ 6.41 µg/mL)
Clc1ccc(Cn2cc(Cn3ccnc3)c3cc(Br)ccc32)cc1 [Cpsé 10, 5-Bromo-1-(4-chlorobenzyl)-3-(1H-imidazol-1-ylmethyl)-1H-indole]	> 100 µM
CCn1cc(C(c2ccc(F)cc2)n2ccnc2)c2cc(Br)ccc21 (stereo not shown) [Cpsé 46, 5-Bromo-1-ethyl-3-[(4-fluorophenyl)(1H-imidazol-1yl)methyl]-1H-indole]	> 100 µM
CCn1ccc2cc(C(c3ccc(Cl)cc3)n3ccnc3)ccc21 (stereo not shown) [Cpsé 53, 5-[(4-Chlorophenyl)(1H-imidazol-1-yl)methyl]-1-ethyl-1H-indole]	> 100 µM
Fc1ccc(Cn2cc(Cn3ccnc3)c3cccnc32)cc1 [Cpsé 88, 1-(4-Fluorobenzyl)-3-(1H-Imidazol-1ylmethyl)-1H-7-azaindole]	> 100 µM

Same assay, conditions: Aspergillus fumigatus; strain AF980003; read-out: CMI or CI80 Aspergillus fumigatus (AF980003)

Structure (SMILES)	MIC
Fc1ccc(C(C(n2ccc3ccccc32)n2nnc3ccccc32)n2ccnc2)cc1 (stereo not shown) [Cpsé 83, 1-[2-(4-Fluorophenyl)-2-(1H-imidazol-1-yl)-1-(benzotriazol-1-yl)ethyl]-1H-indole]	> 100 µM

Same assay, conditions: strain AF980003

Structure (SMILES)	CMI or CI80 Aspergillus fumigatus (AF980003)
CCn1c(C(c2cccc(Cl)c2)n2ccnc2)c(C)c2cc(Br)ccc21 (stereo not shown) [compound 32]	66 ± 5 μM and 28 ± 2 μg/mL
CCn1c(C(c2ccc(Cl)cc2)n2ccnc2)c(C)c2cc(Br)ccc21 (stereo not shown) [compound 33]	56 ± 3 μM and 24 ± 1 μg/mL
CCn1c(C)c(C(c2ccc(F)cc2)n2ccnc2)c2ccccc21 (stereo not shown) [compound 43]	53 ± 3 μM and 17 ± 1 μg/mL
CCn1ccc2cccc(C(c3ccc(F)cc3)n3ccnc3)c21 (stereo not shown) [compound 57]	20 ± 5 μM and 6 ± 2 μg/mL
CCn1ccc2cc(Br)cc(C(c3ccc(F)cc3)n3ccnc3)c21 (stereo not shown) [compound 58]	59 ± 4 μM and 23 ± 2 μg/mL

Same assay, conditions: strain AF980003; Alamar Blue

Structure (SMILES)	CMI or CI80 Aspergillus fumigatus (AF980003)
Fc1ccc(Cn2c(Cn3ccnc3)cc3ccccc32)cc1 [Cpsé 3n, 1-(4-Fluorobenzyl)-2-(1H-imidazol-1-ylmethyl)-1H-indole]	8 ± 1.2 µg/mL
Fc1cccc(Cn2cc(Cn3ccnc3)c3ccccc32)c1 [compound 5]	46 ± 5 μM and 14 ± 1.5 μg/ml

Same assay, conditions: summary of Tables 27 to 40

Structure (SMILES)	activity against Aspergillus fumigatus (in words)
Fc1ccc(Cn2c(Cn3ccnc3)cc3ccccc32)cc1 [Cpsé 3n, 1-(4-Fluorobenzyl)-2-(1H-imidazol-1-ylmethyl)-1H-indole]	most active
Fc1cccc(Cn2cc(Cn3ccnc3)c3ccccc32)c1 [compound 5]	strong activity
CCn1c(C(c2ccc(Cl)cc2)n2ccnc2)c(C)c2cc(Br)ccc21 (stereo not shown) [compound 33]	strong activity
CCn1ccc2cccc(C(c3ccc(F)cc3)n3ccnc3)c21 (stereo not shown) [compound 57]	most active
CCn1ccc2cc(Br)cc(C(c3ccc(F)cc3)n3ccnc3)c21 (stereo not shown) [compound 58]	strong activity

Tested on: promastigote stage of Leishmania mexicana
Test: Antiparasitic activity on the promastigote form of Leishmania (MTT)
Type: cell-based
Conditions: not given

Structure (SMILES)	activity against Leishmania mexicana (in words)
Fc1ccc(Cn2c(Cn3ccnc3)cc3ccccc32)cc1 [Cpsé 3n, 1-(4-Fluorobenzyl)-2-(1H-imidazol-1-ylmethyl)-1H-indole]	strong activity
Clc1ccc(Cn2cc(Cn3ccnc3)c3cc(Br)ccc32)cc1 [Cpsé 10, 5-Bromo-1-(4-chlorobenzyl)-3-(1H-imidazol-1-ylmethyl)-1H-indole]	strong activity
CCn1c(C(c2cccc(Cl)c2)n2ccnc2)c(C)c2cc(Br)ccc21 (stereo not shown) [compound 32]	most active
CCn1c(C(c2ccc(Cl)cc2)n2ccnc2)c(C)c2cc(Br)ccc21 (stereo not shown) [compound 33]	strong activity

Same assay, conditions: Leishmania mexicana; promastigotes; 36 h at 26° C., MTT; read-out: CI50 Leishmania mexicana Promastigotes

Structure (SMILES)	IC50
Fc1ccc(Cn2c(Cn3ccnc3)cc3ccccc32)cc1 [Cpsé 3n, 1-(4-Fluorobenzyl)-2-(1H-imidazol-1-ylmethyl)-1H-indole]	3.4 µg/mL and 8.5 µM
Clc1ccc(Cn2cc(Cn3ccnc3)c3cc(Br)ccc32)cc1 [Cpsé 10, 5-Bromo-1-(4-chlorobenzyl)-3-(1H-imidazol-1-ylmethyl)-1H-indole]	3 µg/mL and 7.5 µM
CCn1cc(C(c2ccc(F)cc2)n2ccnc2)c2cc(Br)ccc21 (stereo not shown) [Cpsé 46, 5-Bromo-1-ethyl-3-[(4-fluorophenyl)(1H-imidazol-1yl)methyl]-1H-indole]	65 µM and 21 µg/mL
CCn1ccc2cc(C(c3ccc(Cl)cc3)n3ccnc3)ccc21 (stereo not shown) [Cpsé 53, 5-[(4-Chlorophenyl)(1H-imidazol-1-yl)methyl]-1-ethyl-1H-indole]	> 100 µM
Fc1ccc(Cn2cc(Cn3ccnc3)c3cccnc32)cc1 [Cpsé 88, 1-(4-Fluorobenzyl)-3-(1H-Imidazol-1ylmethyl)-1H-7-azaindole]	16.6 µM and 6.64 µg/mL

Same assay, conditions: Leishmania mexicana; read-out: CI50 Leishmania mexicana Promastigotes

Structure (SMILES)	IC50
Fc1ccc(C(C(n2ccc3ccccc32)n2nnc3ccccc32)n2ccnc2)cc1 (stereo not shown) [Cpsé 83, 1-[2-(4-Fluorophenyl)-2-(1H-imidazol-1-yl)-1-(benzotriazol-1-yl)ethyl]-1H-indole]	14 µg/mL and 35 µM

Same assay, conditions: promastigotes

Structure (SMILES)	CI50 Leishmania mexicana Promastigotes
CCn1c(C(c2ccc(Cl)cc2)n2ccnc2)c(C)c2cc(Br)ccc21 (stereo not shown) [compound 33]	2.87 ± 2 µg/mL (≈ 6.69 µM)
CCn1c(C)c(C(c2ccc(F)cc2)n2ccnc2)c2ccccc21 (stereo not shown) [compound 43]	1.88 ± 0.1 µg/mL (≈ 5.64 µM)
CCn1ccc2cccc(C(c3ccc(F)cc3)n3ccnc3)c21 (stereo not shown) [compound 57]	0.80 ± 1.3 µg/mL (≈ 2.5 µM)
CCn1ccc2cc(Br)cc(C(c3ccc(F)cc3)n3ccnc3)c21 (stereo not shown) [compound 58]	2.4 ± 0.12 µg/mL (≈ 6.03 µM)

Same assay, conditions: promastigotes; 36 h at 26° C., MTT

Structure (SMILES)	CI50 Leishmania mexicana Promastigotes
Fc1cccc(Cn2cc(Cn3ccnc3)c3ccccc32)c1 [compound 5]	9.2 ± 0.7 µg/mL (≈ 30.1 µM)

Same assay, conditions: promastigotes; 36 h at 26° C., MTT; read-out: CI50 Leishmania mexicana Promastigotes

Structure (SMILES)	IC50
Fc1cccc(Cn2cc(Cn3ccnc3)c3ccccc32)c1 [compound 5]	30.4 ± 2.5 µM

Same assay, conditions: promastigotes; read-out: CI50 Leishmania mexicana Promastigotes

Structure (SMILES)	IC50
CCn1c(C(c2ccc(Cl)cc2)n2ccnc2)c(C)c2cc(Br)ccc21 (stereo not shown) [compound 33]	6.7 ± 2.1 µM
CCn1c(C)c(C(c2ccc(F)cc2)n2ccnc2)c2ccccc21 (stereo not shown) [compound 43]	5.9 ± 0.14 µM
CCn1ccc2cccc(C(c3ccc(F)cc3)n3ccnc3)c21 (stereo not shown) [compound 57]	2.49 ± 1.3 µM
CCn1ccc2cc(Br)cc(C(c3ccc(F)cc3)n3ccnc3)c21 (stereo not shown) [compound 58]	6.2 ± 0.35 µM

Same assay, conditions: read-out: CI50 Leishmania mexicana Promastigotes

Structure (SMILES)	IC50
CCn1c(C(c2cccc(Cl)c2)n2ccnc2)c(C)c2cc(Br)ccc21 (stereo not shown) [compound 32]	< 0.1 µM

Tested on: Candida albicans (strain n° CA980001)
Test: Antifungal activity on a clinical strain of Candida albicans (MTT colorimetric microplate test)
Type: cell-based
Conditions: Candida albicans, 24 h; strain CA980001; read-out: CMI or CI80 Candida albicans (CA980001)

Structure (SMILES)	MIC
Fc1ccc(C(C(n2ccc3ccccc32)n2nnc3ccccc32)n2ccnc2)cc1 (stereo not shown) [Cpsé 83, 1-[2-(4-Fluorophenyl)-2-(1H-imidazol-1-yl)-1-(benzotriazol-1-yl)ethyl]-1H-indole]	66 ± 6 µM (≈ 27.9 µg/mL)

Same assay, conditions: Candida albicans; strain CA980001; 24 h at 37° C., MTT; read-out: CMI or CI80 Candida albicans (CA980001)

Structure (SMILES)	MIC
Fc1ccc(Cn2c(Cn3ccnc3)cc3ccccc32)cc1 [Cpsé 3n, 1-(4-Fluorobenzyl)-2-(1H-imidazol-1-ylmethyl)-1H-indole]	81 ± 14 µM (≈ 24.7 µg/mL)
Clc1ccc(Cn2cc(Cn3ccnc3)c3cc(Br)ccc32)cc1 [Cpsé 10, 5-Bromo-1-(4-chlorobenzyl)-3-(1H-imidazol-1-ylmethyl)-1H-indole]	> 100 µM
CCn1cc(C(c2ccc(F)cc2)n2ccnc2)c2cc(Br)ccc21 (stereo not shown) [Cpsé 46, 5-Bromo-1-ethyl-3-[(4-fluorophenyl)(1H-imidazol-1yl)methyl]-1H-indole]	> 100 µM
CCn1ccc2cc(C(c3ccc(Cl)cc3)n3ccnc3)ccc21 (stereo not shown) [Cpsé 53, 5-[(4-Chlorophenyl)(1H-imidazol-1-yl)methyl]-1-ethyl-1H-indole]	> 100 µM
Fc1ccc(Cn2cc(Cn3ccnc3)c3cccnc32)cc1 [Cpsé 88, 1-(4-Fluorobenzyl)-3-(1H-Imidazol-1ylmethyl)-1H-7-azaindole]	0.7 ± 0.01 µM (≈ 0.214 µg/mL)

Same assay, conditions: strain CA980001

Structure (SMILES)	CMI or CI80 Candida albicans (CA980001)
CCn1c(C(c2cccc(Cl)c2)n2ccnc2)c(C)c2cc(Br)ccc21 (stereo not shown) [compound 32]	62 ± 1 μM and 27 ± 0.5 μg/mL
CCn1c(C(c2ccc(Cl)cc2)n2ccnc2)c(C)c2cc(Br)ccc21 (stereo not shown) [compound 33]	59 ± 1 μM and 25 ± 0.5 μg/mL
CCn1c(C)c(C(c2ccc(F)cc2)n2ccnc2)c2ccccc21 (stereo not shown) [compound 43]	6 ± 1 μM and 2.0 ± 1 μg/mL
CCn1ccc2cccc(C(c3ccc(F)cc3)n3ccnc3)c21 (stereo not shown) [compound 57]	0.67 ± 0.02 μM and 0.21 ± 0.01 μg/mL
CCn1ccc2cc(Br)cc(C(c3ccc(F)cc3)n3ccnc3)c21 (stereo not shown) [compound 58]	0.69 ± 0.01 μM and 0.27 ± 0.01 μg/mL

Same assay, conditions: strain CA980001; 24 h at 37° C., MTT

Structure (SMILES)	CMI or CI80 Candida albicans (CA980001)
Fc1cccc(Cn2cc(Cn3ccnc3)c3ccccc32)c1 [compound 5]	68 ± 1 μM and 20.76 ± 1 μg/ml

Same assay, conditions: strain CA980001; 24 h at 37° C., MTT; listed as 9

Structure (SMILES)	CMI or CI80 Candida albicans (CA980001)
Fc1ccc(Cn2c(Cn3ccnc3)cc3ccccc32)cc1 [Cpsé 3n, 1-(4-Fluorobenzyl)-2-(1H-imidazol-1-ylmethyl)-1H-indole]	32.46 ± 14 µg/mL

Same assay, conditions: strain CA980001; 24 h at 37° C., MTT; listed as 51

Structure (SMILES)	CMI or CI80 Candida albicans (CA980001)
Fc1ccc(Cn2cc(Cn3ccnc3)c3cccnc32)cc1 [Cpsé 88, 1-(4-Fluorobenzyl)-3-(1H-Imidazol-1ylmethyl)-1H-7-azaindole]	0.28 ± 0.01 µg/mL

Same assay, conditions: strain CA980001; listed as 46

Structure (SMILES)	CMI or CI80 Candida albicans (CA980001)
Fc1ccc(C(C(n2ccc3ccccc32)n2nnc3ccccc32)n2ccnc2)cc1 (stereo not shown) [Cpsé 83, 1-[2-(4-Fluorophenyl)-2-(1H-imidazol-1-yl)-1-(benzotriazol-1-yl)ethyl]-1H-indole]	26 ± 2 µg/mL

Same assay, conditions: summary of Tables 27 to 40

Structure (SMILES)	activity of inhibition of Candida albicans (in words)
Fc1ccc(Cn2cc(Cn3ccnc3)c3cccnc32)cc1 [Cpsé 88, 1-(4-Fluorobenzyl)-3-(1H-Imidazol-1ylmethyl)-1H-7-azaindole]	most active
CCn1c(C)c(C(c2ccc(F)cc2)n2ccnc2)c2ccccc21 (stereo not shown) [compound 43]	significant activity
CCn1ccc2cccc(C(c3ccc(F)cc3)n3ccnc3)c21 (stereo not shown) [compound 57]	most active
CCn1ccc2cc(Br)cc(C(c3ccc(F)cc3)n3ccnc3)c21 (stereo not shown) [compound 58]	most active

Reference: patent publication US20040067998A1, “Antifungal and/or antiparasitic pharmaceutical composition and novel indole derivatives as active principle of such a composition” (priority 2003, published 2004)
